Experimental findings from patent US8007526B2, “Difunctionalized aromatic compounds and polymers therefrom” (Bezwada Biomedical, LLC, priority 2005, dated 2011) are described below.

This data set can be described thus: In vitro hydrolysis in Aldrich buffer at 100° C., monitored by TLC for disappearance of starting material. The format is physicochemical. The source says:
In Vitro Hydrolysis of Functionalized Aromatics
A compound and a polymer of the present invention were examined for their rates of hydrolysis as described below.

In the case of `COC(=O)COC(=O)COc1ccc(C(=O)OCC(=O)OC)cc1` [Example 14, 4-Methoxycarbonylmethoxycarbonylmethoxy-benzoic acid methoxycarbonyl methyl ester], the “Hydrolyzed in (time to hydrolysis)” value by setting is: (100 mg in 10 mL Aldrich pH 7.4 buffer) “Hydrolyzed in 26.5 hours”; (100 mg in 10 mL Aldrich pH 9 buffer, 1% solution) “Hydrolyzed in 5 hours”.
